# Reference: patent publication US20210212913A1, “COSMETIC COMPOSITION FOR PROMOTING SKIN EXFOLIATION” (LG HOUSEHOLD & HEALTH CARE LTD., priority 2017, published 2021)
# Test system: porcine skin stratum corneum
# Test: porcine skin stratum corneum evaluation (exfoliation evaluation)
# Type: cell-based, pig
# Settings: 6 mm porcine skin sample, 100 ul sample, 37° C. and 50% humidity for a day; result in words (values only in figures)
# Description: For the porcine skin stratum corneum evaluation of the present disclosure, the exfoliation evaluation method mentioned in Journal of the European Academy of Dermatology and Venereology, 2014, 28, 415-423 was modified and used. Specifically, a sample of 6 mm diameter from 1 mm thick skin of a pig, and the like, was taken with a biopsy tool, and it was placed in a 96-well plate, and after washing it with phosphate buffered saline (PBS) once, 100 ul of the sample to be tested was added. The present sample was stored under the conditions of 37° C. and 50% humidity for a day, and then the number of exfoliated stratum corneum was measured with a cell counter and a sample containing only water was plotted as a negative control group and 10% gluconolactone […] was plotted as a positive control group. The result was shown in the fold increase compared to the value of the result of gluconolactone 10% pH 6 for relative comparison.
compound,measurement,value
NC(=O)NC1NC(=O)NC1=O (stereo not shown) [allantoin],"exfoliation ability (number of exfoliated stratum corneum, fold increase compared to gluconolactone 10% pH 6)",did not have high efficacy when used alone
